Test results: US20030207820A1, “Antibacterial compounds with improved pharmacokinetic profiles” (priority 2002, published 2003)
Read-outs that look alike come from different tables or passages of the source.

Assay: Pharmacokinetic profiles by cassette dosing in dog (IV and PO)
Type: in vivo
Conditions: male beagle dogs, 1 mg/kg; for bioavailability: read-out: F (PO), percent bioavailability
Protocol: The pharmacokinetic profiles of EXAMPLE 20, EXAMPLE 22, EXAMPLE 29 and EXAMPLE 31 were evaluated using cassette dosing protocols in dog. The cassette dosing protocol in dogs combined three test compounds with the reference compound (EXAMPLE 104 of commonly-owned U.S. Pat. No. 5,866,549), each at a dose of 1 mg/kg. The compounds for each cassette were formulated as a solution in an aqueous vehicle containing 10% ethanol and one equivalent hydrochloric acid. Groups of three male beagle dogs received either an intravenous dose (IV) or an oral dose (PO). Sequential blood samples were taken from each animal for 24 hours after dosing. The plasma concentrations of the test compound and reference compounds were simultaneously determined using HPLC-MS/MS following liquid-liquid extraction of the samples. The results are shown in TABLE 2, in which […] is plasma clearance; T1/2 and Tmax are expressed in hours; Cmax is expressed in μg/mL; AUC is expressed in μg·h/mL; F is percent bioavaibility; and volumes of distibution Vc and Vβ are volume of the central compartment and terminal phase distribution, respectively.

Q: Which bioavailability (dog, plasma, oral dose) does the source give for `CC[C@H]1OC(=O)[C@H](C)C(=O)[C@H](C)[C@@H](O[C@@H]2O[C@H](C)C[C@H](N(C)C)[C@H]2O)[C@@](C)(OC/C=C/c2ccc(-c3nnn(C)n3)s2)C[C@@H](C)C(=O)[C@H](C)[C@H]2NC(=O)O[C@@]21C` [4B, (3aS,4R,7R,9R,10R,11S,13R,15R,15aR)-10-(((2S,3R,4S,6R)-4-(dimethylamino)-3-hydroxy-6-methyltetrahydro-2H-pyran-2-yl)oxy)-4-ethyl-3a,7,9,11,13,15-hexamethyl-11-(((2E)-3-(5-(2-methyl-2H-tetraazol-5-yl)thien-2-yl)prop-2-enyl)oxy)octahydro-2H-oxacyclotetradecino[4,3-d][1,3]oxazole-2,6,8,14(1H,7H,9H)-tetrone] here?
A: The bioavailability was 63%.

Q: What about the “AUC (IV)” value (intravenous dose) of the same molecule?
A: The value was 11520 ng·h/mL.

Q: And the “CLp (IV), plasma clearance” value (intravenous dose)?
A: Its value is 0.09.

Q: What about the “T½ (IV)” value (intravenous dose) of the same molecule?
A: Its value is 8.4 h.

Q: And the “Vc (IV), volume of the central compartment” value (shortened to “Vc (IV), volume”) (intravenous dose)?
A: Its value is 0.9.

Q: What about the “Vβ (IV), terminal phase distribution volume” value (shortened to “Vβ (IV)”) (intravenous dose) of the same molecule?
A: The value was 1.1.

Q: What about the “AUC (PO)” value (oral dose) of the same molecule?
A: The value was 6770 ng·h/mL.

Q: What about the “Cmax (PO)” value (oral dose) of the same molecule?
A: Its value is 490 ng/mL.

Q: And the “Tmax (PO)” value (oral dose)?
A: The value was 1.5 h.

Q: What about the “T½ (PO)” value (oral dose) of the same molecule?
A: Its value is 7.8 h.

Q: With `CC[C@H]1OC(=O)[C@H](C)C(=O)[C@H](C)[C@@H](O[C@@H]2O[C@H](C)C[C@H](N(C)C)[C@H]2O)C(C)(OCC#Cc2ccc(-c3nnn(C)n3)s2)C[C@@H](C)C(=O)[C@H](C)[C@H]2NC(=O)O[C@@]21C` (stereo in doubt) [7B, (3aS,4R,7R,9R,10R,11S,13R,15R,15aR)-10-(((2S,3R,4S,6R)-4-(dimethylamino)-3-hydroxy-6-methyltetrahydro-2H-pyran-2-yl)oxy)-4-ethyl-3a,7,9,11,13,15-hexamethyl-11-((3-(5-(2-methyl-2H-tetraazol-5-yl)thien-2-yl)prop-2-ynyl)oxy)octahydro-2H-oxacyclotetradecino[4,3-d][1,3]oxazole-2,6,8,14(1H,7H,9H)-tetrone] as the molecule, how does the AUC (dog, in vivo, intravenous dose, read-out: AUC (IV)) read?
A: Its AUC is 11900 ng·h/mL.

Q: And the clearance (dog, in vivo, intravenous dose, read-out: CLp (IV), plasma clearance (converted))?
A: Its clearance is 1.5 mL/min/kg.

Q: And the half-life (dog, in vivo, intravenous dose, read-out: T½ (IV) (converted))?
A: The half-life was 9 h.

Q: And the Cmax (dog, in vivo, oral dose)?
A: The Cmax was 720 ng/mL.

Q: What about the Tmax (dog, in vivo, oral dose) of the same molecule?
A: The Tmax was 1.3 h.

Q: What about the AUC (dog, in vivo, oral dose, read-out: AUC (PO)) of the same molecule?
A: Its AUC is 9660 ng·h/mL.

Q: And the bioavailability (dog, in vivo, oral dose)?
A: Its bioavailability is 80.3%.

Q: And the half-life (dog, in vivo, oral dose, read-out: T½ (PO) (converted))?
A: Its half-life is 6.7 h.

Q: And the “Vc (IV), volume” value (intravenous dose)?
A: The value was 0.9.

Q: And the “Vβ (IV)” value (intravenous dose)?
A: The value was 1.2.

Q: With `CC[C@H]1OC(=O)[C@@](C)(F)C(=O)[C@H](C)[C@@H](O[C@@H]2O[C@H](C)C[C@H](N(C)C)[C@H]2O)[C@@](C)(OC/C=C/c2ccc(-c3nnn(C)n3)s2)C[C@@H](C)C(=O)[C@H](C)[C@H]2NC(=O)O[C@@]21C` [8B, (3aS,4R,7S,9R,10R,11S,13R,15R,15aR)-10-(((2S,3R,4S,6R)-4-(dimethylamino)-3-hydroxy-6-methyltetrahydro-2H-pyran-2-yl)oxy)-4-ethyl-7-fluoro-3a,7,9,11,13,15-hexamethyl-11-(((2E)-3-(5-(2-methyl-2H-tetraazol-5-yl)thien-2-yl)prop-2-enyl)oxy)octahydro-2H-oxacyclotetradecino[4,3-d][1,3]oxazole-2,6,8,14(1H,7H,9H)-tetrone] as the molecule, how does the bioavailability (dog, plasma, oral dose) read?
A: The bioavailability was 81.1%.

Q: What about the “AUC (IV)” value (intravenous dose) of the same molecule?
A: Its value is 16130 ng·h/mL.

Q: And the “CLp (IV), plasma clearance” value (intravenous dose)?
A: The value was 0.07.

Q: And the “T½ (IV)” value (intravenous dose)?
A: Its value is 22.9 h.

Q: And the “Vc (IV), volume” value (intravenous dose)?
A: The value was 1.1.

Q: What about the “Vβ (IV)” value (intravenous dose) of the same molecule?
A: The value was 2.3.

Q: What about the “AUC (PO)” value (oral dose) of the same molecule?
A: Its value is 12600 ng·h/mL.

Q: And the “Cmax (PO)” value (oral dose)?
A: The value was 480 ng/mL.

Q: What about the “Tmax (PO)” value (oral dose) of the same molecule?
A: The value was 4.5 h.

Q: And the “T½ (PO)” value (oral dose)?
A: Its value is 17.2 h.

Q: Which bioavailability (dog, plasma, oral dose) does the source give for `CC[C@H]1OC(=O)[C@@](C)(F)C(=O)[C@H](C)[C@@H](O[C@@H]2O[C@H](C)C[C@H](N(C)C)[C@H]2O)[C@@](C)(OCC#Cc2ccc(-c3nnn(C)n3)s2)C[C@@H](C)C(=O)[C@H](C)[C@H]2NC(=O)O[C@@]21C` [3B, (3aS,4R,7S,9R,10R,11S,13R,15R,15aR)-10-(((2S,3R,4S,6R)-4-(dimethylamino)-3-hydroxy-6-methyltetrahydro-2H-pyran-2-yl)oxy)-4-ethyl-7-fluoro-3a,7,9,11,13,15-hexamethyl-11-((3-(5-(2-methyl-2H-tetraazol-5-yl)thien-2-yl)prop-2-ynyl)oxy)octahydro-2H-oxacyclotetradecino [4,3-d][1,3]oxazole-2,6,8,14(1H,7H,9H)-tetrone] here?
A: The bioavailability was 73.6%.

Q: And the “AUC (IV)” value (intravenous dose)?
A: The value was 7290 ng·h/mL.

Q: And the “CLp (IV), plasma clearance” value (intravenous dose)?
A: The value was 0.16.

Q: And the “T½ (IV)” value (intravenous dose)?
A: Its value is 14.4 h.

Q: What about the “Vc (IV), volume” value (intravenous dose) of the same molecule?
A: Its value is 1.6.

Q: And the “Vβ (IV)” value (intravenous dose)?
A: Its value is 3.1.

Q: And the “AUC (PO)” value (oral dose)?
A: Its value is 5140 ng·h/mL.

Q: What about the “Cmax (PO)” value (oral dose) of the same molecule?
A: Its value is 250 ng/mL.

Q: And the “Tmax (PO)” value (oral dose)?
A: Its value is 2 h.

Q: And the “T½ (PO)” value (oral dose)?
A: Its value is 11.1 h.
